Reference: JP2011219500A, “ムスカリンレセプターアンタゴニストとしての有用なビフェニル化合物” (Theravance Inc, priority 2011, dated 2011)
Like-named read-outs stand apart in the source and are kept apart here.

How the values were obtained:
hM3 receptor (hM3レセプター) = target: T1, hM3 receptor (hM3レセプター) (Homo sapiens, UniProt P20309); test: Assay 2C: blockade of agonist-mediated calcium release via FLIPR assay; type: cell-based
T1 construct: expressed in transfected cells

[1] = target: T2, M3 muscarinic receptor subtype (M3ムスカリン性レセプターサブタイプ) (Homo sapiens, UniProt P20309); test: Assay 1: radioligand binding assay ([3H]-NMS displacement)
T2 construct: expressed in transfected cells; membrane preparation

[2] = system: ACh-induced bronchoconstriction (ACh誘導性気管支収縮); test: Assay 3: duration of bronchoprotection in guinea pig model of acetylcholine-induced bronchoconstriction; type: in vivo; details: inhalation, 1.5 h post-dose

T2 sequence (P20309 whole entry): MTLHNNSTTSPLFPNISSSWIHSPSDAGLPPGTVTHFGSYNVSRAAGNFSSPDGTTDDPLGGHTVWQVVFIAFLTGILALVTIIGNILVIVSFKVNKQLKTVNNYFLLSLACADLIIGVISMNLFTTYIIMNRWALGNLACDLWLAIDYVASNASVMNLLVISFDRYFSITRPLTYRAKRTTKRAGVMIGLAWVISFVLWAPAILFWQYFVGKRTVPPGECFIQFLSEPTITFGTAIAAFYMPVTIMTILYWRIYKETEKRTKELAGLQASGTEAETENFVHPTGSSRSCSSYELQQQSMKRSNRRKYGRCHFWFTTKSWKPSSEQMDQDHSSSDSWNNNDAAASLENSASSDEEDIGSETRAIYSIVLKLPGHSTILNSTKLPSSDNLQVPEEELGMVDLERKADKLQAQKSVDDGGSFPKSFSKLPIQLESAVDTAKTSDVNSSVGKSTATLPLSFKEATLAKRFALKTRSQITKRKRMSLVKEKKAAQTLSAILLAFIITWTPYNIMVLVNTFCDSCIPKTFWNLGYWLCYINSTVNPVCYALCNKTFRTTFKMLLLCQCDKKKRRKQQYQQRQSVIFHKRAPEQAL
T1 sequence (P20309 whole entry): as above

Ki ([1]; M3 subtype, [3H]-NMS displacement, CHO cell membranes, printed as less than about, read-out: Ki) | SMILES | Ki (hM3 receptor (hM3レセプター)) | Ki [1] | PD2(50) [2]
– | CN(CCN1CCC(OC(=O)Nc2ccccc2-c2ccccc2)CC1)C(=O)c1ccc(CN2CCC(C(N)=O)CC2)cc1 [実施例1, ビフェニル−2−イルカルバミン酸 1−(2−{[4−(4−カルバモイルピペリジン−1−イルメチル)ベンゾイル]メチルアミノ}エチル)ピペリジン−4−イルエステル] | < 5 nM | < 5 nM | < 200 µg/mL
< 5 nM | CCN(CCN1CCC(OC(=O)Nc2ccccc2-c2ccccc2)CC1)C(=O)c1ccc(CN2CCC(C(N)=O)CC2)cc1 [実施例2, ビフェニル−2−イルカルバミン酸 1−(2−{[4−(4−カルバモイルピペリジン−1−イルメチル)−ベンゾイル]エチルアミノ}エチル)ピペリジン−4−イルエステル] | – | – | –
